{"source": "patent US20100093700A1", "about": "“Methods of Treating Mood Disorders” (priority 2007, published 2010)", "key": {"[1]": {"test_system": "immobility", "assay": "Mouse forced swim test (FST)", "assay_type": "in vivo", "conditions": "15 minutes prior", "description": "The mouse forced swim test (FST) has been used to assess antidepressant potential of novel compounds (Porsolt; Lucki). Methods: Mice were placed in cylinders of water (25.0° C.±1.5° C.) for 6 minutes. The amount of immobility was quantified during the last 4 min of each session. The experimental observer was blind to the treatment conditions. […] Imipramine 45.0 mg/kg and citalopram 15.0 mg/kg were measured as the salt and administered ip 60 minutes prior to the behavioral session."}, "[2]": {"molecular_target": "T1, Adrenergic α1A (Rattus norvegicus, UniProt P43140)", "T1 construct": "203100", "T1 sequence (P43140 whole entry)": "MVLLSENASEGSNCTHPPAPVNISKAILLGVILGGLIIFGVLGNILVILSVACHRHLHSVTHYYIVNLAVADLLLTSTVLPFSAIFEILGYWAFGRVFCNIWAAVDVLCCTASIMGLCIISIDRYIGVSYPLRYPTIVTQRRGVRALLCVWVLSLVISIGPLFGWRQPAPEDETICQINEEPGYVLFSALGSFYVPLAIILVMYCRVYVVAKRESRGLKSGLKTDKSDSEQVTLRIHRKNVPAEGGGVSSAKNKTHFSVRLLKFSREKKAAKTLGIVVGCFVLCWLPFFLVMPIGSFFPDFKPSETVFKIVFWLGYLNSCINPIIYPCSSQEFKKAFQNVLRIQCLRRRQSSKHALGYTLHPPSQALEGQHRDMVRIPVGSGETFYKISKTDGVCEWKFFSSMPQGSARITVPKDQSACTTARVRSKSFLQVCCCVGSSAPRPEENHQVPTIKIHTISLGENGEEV", "assay": "Radioligand binding 203100 Adrenergic α1A", "source_text": "(§1) Receptor binding methods, α-adrenergic subtype specific, are provided below."}, "[3]": {"molecular_target": "Transporter, Norepinephrine (NET) (Homo sapiens, UniProt P23975)", "sequence (P23975 whole entry)": "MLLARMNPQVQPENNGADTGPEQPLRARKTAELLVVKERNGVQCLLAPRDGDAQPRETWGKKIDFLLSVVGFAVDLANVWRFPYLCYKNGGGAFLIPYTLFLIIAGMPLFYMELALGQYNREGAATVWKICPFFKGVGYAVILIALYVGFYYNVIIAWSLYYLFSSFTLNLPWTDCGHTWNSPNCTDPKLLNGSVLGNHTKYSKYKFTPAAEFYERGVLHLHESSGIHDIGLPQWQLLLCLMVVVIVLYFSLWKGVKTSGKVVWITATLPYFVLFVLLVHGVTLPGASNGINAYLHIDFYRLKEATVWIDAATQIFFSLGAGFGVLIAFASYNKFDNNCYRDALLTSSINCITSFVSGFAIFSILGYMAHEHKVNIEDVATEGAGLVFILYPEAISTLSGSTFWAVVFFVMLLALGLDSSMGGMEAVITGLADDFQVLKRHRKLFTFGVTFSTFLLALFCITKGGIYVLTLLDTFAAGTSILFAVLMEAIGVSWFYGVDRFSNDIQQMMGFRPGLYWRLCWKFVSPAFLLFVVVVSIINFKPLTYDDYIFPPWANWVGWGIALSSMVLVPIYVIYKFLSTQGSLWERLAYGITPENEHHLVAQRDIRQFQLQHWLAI", "assay": "Radioligand binding assay, norepinephrine transporter", "description": "The following examples set forth parameters for the radioligand binding assay that was carried out."}, "[4]": {"molecular_target": "Adrenergic α2B (Homo sapiens, UniProt P18089)", "sequence (P18089 whole entry)": "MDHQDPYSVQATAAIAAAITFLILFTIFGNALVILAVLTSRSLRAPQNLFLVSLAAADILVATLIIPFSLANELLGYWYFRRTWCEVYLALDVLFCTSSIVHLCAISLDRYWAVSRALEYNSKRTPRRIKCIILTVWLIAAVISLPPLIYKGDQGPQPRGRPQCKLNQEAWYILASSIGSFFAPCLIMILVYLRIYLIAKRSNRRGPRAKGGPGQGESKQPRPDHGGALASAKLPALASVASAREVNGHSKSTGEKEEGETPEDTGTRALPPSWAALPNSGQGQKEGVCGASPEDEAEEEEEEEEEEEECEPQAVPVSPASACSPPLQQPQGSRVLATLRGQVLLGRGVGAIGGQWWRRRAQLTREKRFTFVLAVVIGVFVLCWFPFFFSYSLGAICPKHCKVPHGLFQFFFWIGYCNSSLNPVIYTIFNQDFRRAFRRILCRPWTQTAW", "assay": "Radioligand binding Adrenergic α2B", "conditions": "hum"}, "[5]": {"test_system": "immobility", "assay": "Tail suspension test", "assay_type": "in vivo, mice", "conditions": "for reduction of immobility relative to vehicle control group: p<0.01", "description": "In a first experiment, mice (n−10/group) were treated with vehicle, 2.0, 5.0, or 10.0 mg/kg of 11-piperazin-1-yldibenzo[b,f][1,4]thiazepine s.c. 15 minutes prior to the test session. Mice were suspended from their tails for 7 minutes. During the last 5 minutes of the test, the duration of immobility was recorded. In a second experiment, mice (n=10/group) were treated with vehicle, 30 mg/kg 11-piperazin-1-yldibenzo[b,f][1,4]thiazepine, or 30 mg/kg fluoxetine p.o. 60 minutes prior to the test session. Mice were suspended from their tails for 7 minutes. During the last 5 minutes of the test, the duration of immobility was recorded."}, "[6]": {"molecular_target": "T2, Adrenergic α1B (Rattus norvegicus, UniProt P15823)", "T2 construct": "203200", "T2 sequence (P15823 whole entry)": "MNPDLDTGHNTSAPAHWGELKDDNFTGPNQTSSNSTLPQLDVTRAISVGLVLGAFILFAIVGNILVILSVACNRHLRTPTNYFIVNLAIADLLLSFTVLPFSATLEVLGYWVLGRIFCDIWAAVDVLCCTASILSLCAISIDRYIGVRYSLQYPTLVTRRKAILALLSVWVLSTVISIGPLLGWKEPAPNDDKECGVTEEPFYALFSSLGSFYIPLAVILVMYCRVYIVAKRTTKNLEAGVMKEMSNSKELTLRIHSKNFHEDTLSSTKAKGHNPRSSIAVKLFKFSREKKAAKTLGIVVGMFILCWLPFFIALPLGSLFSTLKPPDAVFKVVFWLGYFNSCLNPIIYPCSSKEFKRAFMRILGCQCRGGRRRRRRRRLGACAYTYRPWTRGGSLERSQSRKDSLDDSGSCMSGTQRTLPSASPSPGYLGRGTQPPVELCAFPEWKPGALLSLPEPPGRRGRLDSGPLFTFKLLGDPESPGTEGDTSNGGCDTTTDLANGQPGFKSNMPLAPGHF", "assay": "Radioligand binding 203200 Adrenergic α1B", "source_text": "as §1"}, "[7]": {"molecular_target": "T3, D1 receptors (Homo sapiens, UniProt P21728)", "T3 construct": "from tissue; host or cells: brain of living primates (PET)", "assay": "PET scans of primate subjects, D1", "assay_type": "in vivo", "conditions": "preliminary PET", "source_text": "(§2) The compound of Formula I is a dibenzothiazepine that has shown antidopaminergic activity."}, "[8]": {"molecular_target": "T4, 5HT Transporter (Homo sapiens, UniProt P31645)", "T4 construct": "from tissue; host or cells: brain of living primates (PET)", "T4 sequence (P31645 whole entry, species assumed)": "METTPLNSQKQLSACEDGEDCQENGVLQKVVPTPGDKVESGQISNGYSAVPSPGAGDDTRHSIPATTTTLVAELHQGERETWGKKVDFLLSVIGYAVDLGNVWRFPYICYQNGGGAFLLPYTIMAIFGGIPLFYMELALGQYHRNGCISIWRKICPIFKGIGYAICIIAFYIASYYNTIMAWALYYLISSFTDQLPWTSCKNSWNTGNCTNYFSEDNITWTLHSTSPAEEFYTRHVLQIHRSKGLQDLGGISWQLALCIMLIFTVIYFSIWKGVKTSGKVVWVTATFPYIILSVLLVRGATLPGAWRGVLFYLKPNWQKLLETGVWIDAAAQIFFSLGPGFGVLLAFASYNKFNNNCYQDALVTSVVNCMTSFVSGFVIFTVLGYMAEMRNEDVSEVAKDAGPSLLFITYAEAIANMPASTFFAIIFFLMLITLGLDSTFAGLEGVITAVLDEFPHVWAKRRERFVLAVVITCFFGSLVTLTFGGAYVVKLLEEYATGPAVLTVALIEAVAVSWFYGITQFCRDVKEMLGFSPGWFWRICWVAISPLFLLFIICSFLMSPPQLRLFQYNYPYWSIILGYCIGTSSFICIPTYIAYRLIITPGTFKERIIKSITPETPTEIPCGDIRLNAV", "assay": "PET scans of primate subjects, 5HT Transporter", "assay_type": "in vivo", "conditions": "preliminary PET", "source_text": "as §2"}, "[9]": {"test_system": "apomorphine climbing", "assay": "Standard apomorphine climbing mouse assay", "assay_type": "in vivo", "conditions": "mice, p.o.", "source_text": "(§3) An assessment of dopamine antagonism was made in rodent models."}, "[10]": {"molecular_target": "Adrenergic α2C (Homo sapiens, UniProt P18825)", "sequence (P18825 whole entry)": "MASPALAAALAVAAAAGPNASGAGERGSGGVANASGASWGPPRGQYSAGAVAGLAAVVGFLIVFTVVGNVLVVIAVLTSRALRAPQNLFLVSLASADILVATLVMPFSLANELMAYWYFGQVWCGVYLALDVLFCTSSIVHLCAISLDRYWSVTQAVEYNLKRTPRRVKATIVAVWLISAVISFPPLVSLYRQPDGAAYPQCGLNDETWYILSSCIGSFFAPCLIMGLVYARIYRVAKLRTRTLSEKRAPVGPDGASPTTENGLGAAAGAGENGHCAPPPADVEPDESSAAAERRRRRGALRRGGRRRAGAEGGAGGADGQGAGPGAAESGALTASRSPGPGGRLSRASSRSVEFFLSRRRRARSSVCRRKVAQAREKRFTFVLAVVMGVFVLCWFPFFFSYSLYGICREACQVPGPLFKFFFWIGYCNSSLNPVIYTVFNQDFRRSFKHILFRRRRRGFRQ", "assay": "Radioligand binding Adrenergic α2C", "conditions": "hum"}, "[11]": {"molecular_target": "T5, Adrenergic α1D (Homo sapiens, UniProt P25100)", "T5 construct": "host or cells: HEK-293", "assay": "Radioligand binding 203400 Adrenergic α1D", "conditions": "hum", "source_text": "as §1"}, "[12]": {"molecular_target": "D2 receptors (Homo sapiens, UniProt P14416)", "assay": "PET scans of primate subjects, D2", "assay_type": "in vivo", "conditions": "preliminary PET"}, "[13]": {"assay": "Brain exposure in rats", "assay_type": "in vivo", "conditions": "one hour after 30 μmol/kg po", "description": "Brain exposure was measured in rats. For concentrations of 11-piperazin-1-yldibenzo[b,f][1,4]thiazepine in brain, rats were dosed either po or iv (n=3 per dose route). At one hour after compound administration, blood and brain samples were obtained and then processed for analysis using HPLC/MS to measure concentrations of 11-piperazin-1-yldibenzo[b,f][1,4]thiazepine."}, "[14]": {"test_system": "Adrenergic α1* Non-Selective", "assay": "Radioligand binding 203500 Adrenergic α1 Non-Selective", "conditions": "rat", "source_text": "(§4) Receptor binding methods, α-adrenergic nonselective, are provided below."}, "[15]": {"molecular_target": "T6, 5-HT2A receptors (Homo sapiens, UniProt P28223)", "T6 construct": "from tissue; host or cells: brain of living primates (PET)", "T6 sequence (P28223 whole entry)": "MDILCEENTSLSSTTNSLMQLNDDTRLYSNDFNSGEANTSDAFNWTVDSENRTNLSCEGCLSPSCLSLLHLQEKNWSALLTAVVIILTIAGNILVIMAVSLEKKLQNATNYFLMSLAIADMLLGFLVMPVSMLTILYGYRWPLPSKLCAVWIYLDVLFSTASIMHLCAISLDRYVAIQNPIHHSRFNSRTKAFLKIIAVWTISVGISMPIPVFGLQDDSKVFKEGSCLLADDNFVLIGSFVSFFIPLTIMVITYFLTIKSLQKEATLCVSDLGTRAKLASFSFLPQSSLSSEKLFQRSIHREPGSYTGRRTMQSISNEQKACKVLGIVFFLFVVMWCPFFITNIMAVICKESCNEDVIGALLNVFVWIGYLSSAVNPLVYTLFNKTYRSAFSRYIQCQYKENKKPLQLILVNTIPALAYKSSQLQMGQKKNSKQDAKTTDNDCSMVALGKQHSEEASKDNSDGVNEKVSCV", "assay": "PET scans of primate subjects, 5-HT2A", "assay_type": "in vivo", "conditions": "preliminary PET", "source_text": "as §2"}, "[16]": {"molecular_target": "Uptake, Norepinephrine (Homo sapiens, UniProt P23975)", "sequence (P23975 whole entry)": "as the sequence (P23975 whole entry) above", "assay": "Functional assay measuring norepinephrine uptake", "assay_type": "cell-based", "conditions": "[3H]Norepinephrine uptake, MDCK cells; read-out: EC50/IC50", "description": "The following examples set forth parameters for the functional assay measuring norepinephrine uptake that was carried out."}, "[17]": {"test_system": "Adrenergic α2* Non-Selective", "assay": "Radioligand binding 203900 Adrenergic α2 Non-Selective", "conditions": "rat", "source_text": "as §4"}, "[18]": {"assay": "Oral bioavailability in monkeys", "assay_type": "in vivo", "conditions": "cynomolgus monkey, plasma"}, "[19]": {"molecular_target": "T7, 5-HT1A receptors (Homo sapiens, UniProt P08908)", "T7 construct": "from tissue; host or cells: brain of living primates (PET)", "T7 sequence (P08908 whole entry)": "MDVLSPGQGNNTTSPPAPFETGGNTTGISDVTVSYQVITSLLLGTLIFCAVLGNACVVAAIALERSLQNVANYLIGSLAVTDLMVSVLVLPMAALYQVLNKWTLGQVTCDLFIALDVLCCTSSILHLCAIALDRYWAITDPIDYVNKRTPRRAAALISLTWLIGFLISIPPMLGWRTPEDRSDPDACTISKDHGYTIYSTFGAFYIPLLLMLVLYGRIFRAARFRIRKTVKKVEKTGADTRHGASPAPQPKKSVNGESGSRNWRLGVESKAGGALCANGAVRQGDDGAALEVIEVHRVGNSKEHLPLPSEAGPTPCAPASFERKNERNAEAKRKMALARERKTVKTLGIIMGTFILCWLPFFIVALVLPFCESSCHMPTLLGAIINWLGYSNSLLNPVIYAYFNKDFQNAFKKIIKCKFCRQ", "assay": "PET scans of primate subjects, 5-HT1A", "assay_type": "in vivo", "conditions": "preliminary PET", "source_text": "as §2"}, "[20]": {"molecular_target": "Adrenergic α2A (Homo sapiens, UniProt P08913)", "sequence (P08913 whole entry)": "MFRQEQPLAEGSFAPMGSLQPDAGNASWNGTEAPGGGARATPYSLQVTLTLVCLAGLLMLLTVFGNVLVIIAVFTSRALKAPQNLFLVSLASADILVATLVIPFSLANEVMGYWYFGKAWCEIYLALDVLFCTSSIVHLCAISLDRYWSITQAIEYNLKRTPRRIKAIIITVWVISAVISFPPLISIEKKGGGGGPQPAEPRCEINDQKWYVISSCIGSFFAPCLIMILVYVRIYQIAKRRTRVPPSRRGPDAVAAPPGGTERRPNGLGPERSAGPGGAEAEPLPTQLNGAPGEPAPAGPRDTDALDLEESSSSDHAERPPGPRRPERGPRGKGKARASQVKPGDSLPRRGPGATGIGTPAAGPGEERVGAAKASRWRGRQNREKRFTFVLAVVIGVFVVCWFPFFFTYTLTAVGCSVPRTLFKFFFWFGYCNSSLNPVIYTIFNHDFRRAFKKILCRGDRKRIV", "assay": "Radioligand binding Adrenergic α2A", "conditions": "hum"}, "[21]": {"test_system": "D-amphetamine locomotor activity", "assay": "D-amphetamine locomotor activity test", "assay_type": "in vivo, rat", "conditions": "rats, s.c., freebase", "source_text": "as §3"}, "[22]": {"assay": "Oral bioavailability in dogs", "assay_type": "in vivo", "conditions": "dog, plasma, Beagle dogs"}, "[23]": {"molecular_target": "T8, dopamine D1 receptor (Rattus norvegicus, UniProt P18901)", "T8 construct": "from tissue; host or cells: brain", "T8 sequence (P18901 whole entry)": "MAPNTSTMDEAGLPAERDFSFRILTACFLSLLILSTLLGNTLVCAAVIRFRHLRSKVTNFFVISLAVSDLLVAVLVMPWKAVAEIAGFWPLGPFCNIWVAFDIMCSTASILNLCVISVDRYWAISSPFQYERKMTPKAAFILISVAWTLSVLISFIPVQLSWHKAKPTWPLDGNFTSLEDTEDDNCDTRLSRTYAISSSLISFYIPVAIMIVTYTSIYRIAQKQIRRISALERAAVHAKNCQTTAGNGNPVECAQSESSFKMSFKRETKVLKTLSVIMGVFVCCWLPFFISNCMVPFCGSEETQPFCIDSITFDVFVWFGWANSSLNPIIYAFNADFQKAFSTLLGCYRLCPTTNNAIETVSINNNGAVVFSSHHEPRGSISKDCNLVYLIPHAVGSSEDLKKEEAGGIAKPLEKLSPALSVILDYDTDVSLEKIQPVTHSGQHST", "assay": "In-vitro binding, dopamine D1 receptor", "conditions": "dihydrochloride salt; read-out: binding affinity for dopamine D1 receptor (K1)"}, "[24]": {"molecular_target": "brain serotonin 5-HT2 receptor (UniProt P14842)", "assay": "In-vitro binding, brain serotonin 5-HT2 receptor", "conditions": "dihydrochloride salt; read-out: binding affinity for brain serotonin 5-HT2 receptor (K1)"}, "[25]": {"molecular_target": "T9, dopamine D2 receptor (Rattus norvegicus, UniProt P61169)", "T9 construct": "relative to dopamine (D2) receptors in the brain; from tissue; host or cells: brain", "assay": "In-vitro binding, dopamine D2 receptor", "conditions": "dihydrochloride salt; read-out: binding affinity for dopamine D2 receptor (K1)"}, "[26]": {"conditions": "30 mg/kg p.o., 60 minutes prior"}}, "data": [{"smiles": "OCCOCCN1CCN(C2=Nc3ccccc3Sc3ccccc32)CC1", "note": "[Quetiapine, quetiapine, reference compound]", "values": [{"measurement": "effect on immobility in FST", "setting": "[1]; 5.0, 10.0 and 20.0 mg/kg sc", "result": "no effect"}]}, {"smiles": "c1ccc2c(c1)N=C(N1CCNCC1)c1ccccc1S2", "note": "[11-piperazin-1-yldibenzo[b,f][1,4]thiazepine]", "values": [{"measurement": "n (Hill coefficient)", "setting": "[2]", "result": "1.03 ± 0.089"}, {"measurement": "effect on immobility in FST", "setting": "[1]; 10.0 mg/kg sc", "result": "antidepressant effects in this assay comparable to imipramine"}, {"measurement": "inhibition at 10 µM", "setting": "[3]", "result": 97, "unit": "%"}, {"measurement": "n (Hill coefficient)", "setting": "[4]", "result": "0.902 ± 0.055"}, {"measurement": "reduction of immobility relative to vehicle control group", "setting": "[5]; 10.0 mg/kg s.c.", "result": "more than ½"}, {"measurement": "reduction of immobility relative to vehicle control group", "setting": "[5]; [26]", "result": "more than ½"}, {"measurement": "effect on duration of immobility", "setting": "[5]; 2.0, 5.0 or 10.0 mg/kg s.c., 15 minutes prior", "result": "reduced immobility at all doses tested"}, {"measurement": "n (Hill coefficient)", "setting": "[6]", "result": "1.1 ± 0.024"}, {"measurement": "receptor occupancy (PET), D1", "setting": "[7]", "result": "occupies"}, {"measurement": "occupancy (PET), 5HT Transporter", "setting": "[8]", "result": "occupies"}, {"measurement": "in vivo antipsychotic activity, apomorphine mouse assay", "setting": "[9]", "result": "not shown to be efficacious"}, {"measurement": "n (Hill coefficient)", "setting": "[10]", "result": "1.1 ± 0.079"}, {"measurement": "n (Hill coefficient)", "setting": "[11]", "result": "0.984 ± 0.111"}, {"measurement": "receptor occupancy (PET), D2", "setting": "[12]", "result": "occupies"}, {"measurement": "average concentration in brain tissue", "setting": "[13]", "result": 2240, "unit": "nmol/g"}, {"measurement": "% INH.", "setting": "[14]; 0.1 μM", "result": 61, "unit": "%"}, {"measurement": "IC50", "setting": "[14]", "result": 69.3, "unit": "nM"}, {"measurement": "Ki", "setting": "[14]", "result": 37.2, "unit": "nM"}, {"measurement": "receptor occupancy (PET), 5-HT2A", "setting": "[15]", "result": "occupies"}, {"measurement": "IC50", "setting": "[16]", "result": 13.4, "unit": "nM"}, {"measurement": "% INH.", "setting": "[17]; 10 μM", "result": 73, "unit": "%"}, {"measurement": "IC50", "setting": "[17]", "result": 1410, "unit": "nM"}, {"measurement": "Ki", "setting": "[17]", "result": 1290, "unit": "nM"}, {"measurement": "bioavailability", "setting": "[18]", "result": 37, "unit": "%"}, {"measurement": "receptor occupancy (PET), 5-HT1A", "setting": "[19]", "result": "occupies"}, {"measurement": "n (Hill coefficient)", "setting": "[20]", "result": "0.969 ± 0.012"}, {"measurement": "in vivo antipsychotic activity, D-amphetamine locomotor activity test", "setting": "[21]", "result": "not found to be efficacious"}, {"measurement": "in vivo antipsychotic activity, D-amphetamine locomotor activity test", "setting": "[21]; listed as Formula I", "result": "not shown to be efficacious"}, {"measurement": "bioavailability", "setting": "[22]", "result": 42, "unit": "%"}]}, {"smiles": "Cl.Cl.c1ccc2c(c1)N=C(N1CCNCC1)c1ccccc1S2", "note": "[11-piperazin-1-yldibenzo[b,f][1,4]thiazepine, dihydrochloride salt]", "values": [{"measurement": "in vivo antipsychotic activity, apomorphine mouse assay", "setting": "[9]", "result": "not found to be efficacious"}, {"measurement": "Ki", "setting": "[23]", "result": 1490, "unit": "nM"}, {"measurement": "Ki", "setting": "[24]", "result": 27, "unit": "nM"}, {"measurement": "Ki", "setting": "[25]", "result": 234, "unit": "nM"}]}, {"smiles": "CNCCC(Oc1ccc(C(F)(F)F)cc1)c1ccccc1", "note": "(centres unmarked) [fluoxetine, reference compound]", "values": [{"measurement": "reduction of immobility relative to vehicle control group", "setting": "[5]; [26]", "result": "more than ½"}]}]}
